Molecules are shown by their SMILES.

The test addresses T1, glucocorticoid receptor (Homo sapiens, UniProt P04150).
T1 construct: endogenous in cells; ATCC cat
T1 sequence (P04150 1-777): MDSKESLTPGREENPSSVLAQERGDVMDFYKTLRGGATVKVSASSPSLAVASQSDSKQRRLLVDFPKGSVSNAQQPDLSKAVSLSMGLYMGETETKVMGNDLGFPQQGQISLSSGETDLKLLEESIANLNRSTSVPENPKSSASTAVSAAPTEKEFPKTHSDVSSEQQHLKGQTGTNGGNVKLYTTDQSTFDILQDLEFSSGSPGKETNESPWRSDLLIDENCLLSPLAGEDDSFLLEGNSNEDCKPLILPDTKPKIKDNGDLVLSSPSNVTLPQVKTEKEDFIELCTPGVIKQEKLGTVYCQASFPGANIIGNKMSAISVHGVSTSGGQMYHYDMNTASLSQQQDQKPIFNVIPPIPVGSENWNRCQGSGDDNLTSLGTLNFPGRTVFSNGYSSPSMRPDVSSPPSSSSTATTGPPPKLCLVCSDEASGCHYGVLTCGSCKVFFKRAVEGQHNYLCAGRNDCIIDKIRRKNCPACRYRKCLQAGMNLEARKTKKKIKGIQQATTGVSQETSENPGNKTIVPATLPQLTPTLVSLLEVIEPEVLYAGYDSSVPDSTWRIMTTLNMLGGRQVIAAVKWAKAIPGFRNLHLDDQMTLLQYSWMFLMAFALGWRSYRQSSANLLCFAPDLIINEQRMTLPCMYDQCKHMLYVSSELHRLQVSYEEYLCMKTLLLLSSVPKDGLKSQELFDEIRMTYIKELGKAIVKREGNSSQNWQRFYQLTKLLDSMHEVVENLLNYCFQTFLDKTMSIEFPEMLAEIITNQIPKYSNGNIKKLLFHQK
The experiment in a line: Hep G2 TAT IC50: inhibition of dexamethasone-induced TAT in HepG2 cells (384 well). Type of test: cell-based. The method, then: Glucocorticoid mediated activation of TAT occurs by transactivation of glucocorticoid response elements in the TAT promoter by glucocorticoid receptor/agonist complex.
HepG2 cells were cultured using MEME media supplemented with 10% (v/v) foetal bovine serum, 2 mM L-glutamine, 1% (v/v) NEAA, and 1% (v/v) penstrep, at 37° C., 5%/95% (v/v) CO2/air.
Compounds were diluted from a 10 mM stock via an Echo Acoustic liquid handler into 10 μL assay media to generate a 10-point half-log dilution curve.
HepG2 cells were then lysed with 8 μL of cell lysis buffer containing a protease inhibitor cocktail for 15 minutes at 25° C. […] After a 2-hour incubation at 37° C. the reaction was terminated by the addition of 8 μL of 5 M aqueous potassium hydroxide solution, and the plates incubated for a further 30 minutes at 37° C.
[compound] and fitting the data to a 4-parameter logistic equation.
For `Cc1cc2c(cnn2-c2ccccc2)cc1C1CN(S(=O)(=O)c2cnn(C)n2)CCN1CCC(F)(F)F` (centres unmarked) [Example 199, 6-methyl-5-(4-(2-methyltriazol-4-yl)sulfonyl-1-(3,3,3-trifluoropropyl)piperazin-2-yl)-1-phenyl-indazole], half-maximal inhibition (IC50) was put at 1320 nM.
The value for `Cc1cccc(-n2ncc3cc(C4CN(S(=O)(=O)c5cnn(C)n5)CCN4CCC(F)(F)F)c(C)cc32)c1` (centres unmarked) [Example 200, 6-methyl-5-(4-(2-methyltriazol-4-yl)sulfonyl-1-(3,3,3-trifluoropropyl)piperazin-2-yl)-1-(m-tolyl)indazole] was 4010 nM; that for `Cc1cc2c(cnn2-c2cccc(C(F)F)c2)cc1C1CN(S(=O)(=O)c2cnn(C)n2)CCN1CCC(F)(F)F` (centres unmarked) [Example 201, 1-(3-(difluoromethyl)phenyl)-6-methyl-5-(4-(2-methyltriazol-4-yl)sulfonyl-1-(3,3,3-trifluoropropyl)piperazin-2-yl)indazole] was 3850 nM.
With `Cc1cc2c(cnn2-c2ccc(F)c(CO)c2)cc1C1CN(S(=O)(=O)c2cnn(C)n2)CCN1CCC(F)(F)F` (centres unmarked) [Example 202, (2-fluoro-5-(6-methyl-5-(4-(2-methyltriazol-4-yl)sulfonyl-1-(3,3,3-trifluoropropyl)piperazin-2-yl)indazol-1-yl)phenyl)methanol], the IC50 is 1040 nM.
The value for `Cc1cc(-n2ncc3cc(C4CN(S(=O)(=O)c5cnn(C)n5)CCN4CCC(F)(F)F)c(C)cc32)ncn1` (centres unmarked) [Example 203, 6-methyl-1-(6-methylpyrimidin-4-yl)-5-(4-(2-methyltriazol-4-yl)sulfonyl-1-(3,3,3-trifluoropropyl)piperazin-2-yl)indazole] was 9330 nM; that for `Cc1cnnc(-n2ncc3cc(C4CN(S(=O)(=O)c5cnn(C)n5)CCN4CCC(F)(F)F)c(C)cc32)c1` (centres unmarked) [Example 204, 6-methyl-1-(5-methylpyridazin-3-yl)-5-(4-(2-methyltriazol-4-yl)sulfonyl-1-(3,3,3-trifluoropropyl)piperazin-2-yl)indazole] was 3850 nM; that for `COc1ccc(-n2ncc3cc(C4CN(S(=O)(=O)c5cnn(C)n5)CCN4CCC(F)(F)F)c(C)cc32)cc1` (centres unmarked) [Example 205, 1-(4-methoxyphenyl)-6-methyl-5-(4-(2-methyltriazol-4-yl)sulfonyl-1-(3,3,3-trifluoropropyl)piperazin-2-yl)indazole] was 2880 nM.
Then `COc1ncc(-n2ncc3cc(C4CN(S(=O)(=O)c5cnn(C)n5)CCN4CCC(F)(F)F)c(C)cc32)cc1C` (centres unmarked) [Example 206, 1-(6-methoxy-5-methyl-3-pyridyl)-6-methyl-5-(4-(2-methyltriazol-4-yl)sulfonyl-1-(3,3,3-trifluoropropyl)piperazin-2-yl)indazole], with 6120 nM; and `Cc1cc2c(cnn2-c2cc(F)c(=O)n(C)c2)cc1C1CN(S(=O)(=O)c2cnn(C)n2)CCN1CCC(F)(F)F` (centres unmarked) [Example 207, 3-fluoro-1-methyl-5-(6-methyl-5-(4-(2-methyltriazol-4-yl)sulfonyl-1-(3,3,3-trifluoropropyl)piperazin-2-yl)indazol-1-yl)pyridin-2-one], with 933 nM.
The value for `CN(C)S(=O)(=O)N1CCN(CCC(F)(F)F)C(c2cc3cnn(-c4ccc(F)cc4)c3cc2Cl)C1` (centres unmarked) [Example 209, 3-(6-chloro-1-(4-fluorophenyl)indazol-5-yl)-N,N-dimethyl-4-(3,3,3-trifluoropropyl)piperazine-1-sulfonamide] was 3130 nM; that for `O=S(=O)(N1CCOCC1)N1CCN(CCC(F)(F)F)C(c2cc3cnn(-c4ccc(F)cc4)c3cc2Cl)C1` (centres unmarked) [Example 210, 4-(3-(6-chloro-1-(4-fluorophenyl)indazol-5-yl)-4-(3,3,3-trifluoropropyl)piperazin-1-yl)sulfonylmorpholine] was 2540 nM; that for `Cc1cc(-n2ncc3cc(C4CN(S(=O)(=O)N5CCOCC5)CCN4CCC(F)(F)F)c(Cl)cc32)cn(C)c1=O` (centres unmarked) [Example 211, 5-(6-chloro-5-(4-morpholinosulfonyl-1-(3,3,3-trifluoropropyl)piperazin-2-yl)indazol-1-yl)-1,3-dimethyl-pyridin-2-one] was 589 nM.
For `COc1cc2c(cnn2-c2ccc(F)cc2)cc1C1CN(S(=O)(=O)N(C)C)CCN1CCC(F)(F)F` (centres unmarked) [Example 212, 3-(1-(4-fluorophenyl)-6-methoxy-indazol-5-yl)-N,N-dimethyl-4-(3,3,3-trifluoropropyl)piperazine-1-sulfonamide], the IC50 was 1440 nM.
`COc1cc2c(cnn2-c2ccc(F)cc2)cc1C1CN(S(=O)(=O)N(C)C)CCN1CC1CC(F)(F)C1` (centres unmarked) [Example 213, 4-((3,3-difluorocyclobutyl)methyl)-3-(1-(4-fluorophenyl)-6-methoxy-indazol-5-yl)-N,N-dimethyl-piperazine-1-sulfonamide] registered an IC50 of 2240 nM.

As a reminder, the IC50 is the concentration that inhibits the measured activity by half.

These data come from patent US12098144B2, “Piperazine indazole glucocorticoid receptor antagonists” (Corcept Therapeutics Incorporated, priority 2021, dated 2024).
